Source: patent US9029405B2, “5-(biphenyl-4-yl)-3-phenyl-1,2,4-oxadiazolyl derivatives as ligands on the sphingosine 1-phosphate(SIP)receptors” (Merck Serono S.A., priority 2010, dated 2015)
Counter-ions that a name gives are not always drawn. Like-named read-outs stand apart in the source and are kept apart here.

Key:
S1P3 = S1P3 (Homo sapiens, UniProt Q99500); assay: Receptor binding assay, [33P]sphingosine 1-phosphate competition, membranes of CHO cells expressing S1P3
Experimental: (§1) Membranes were prepared from CHO cells expressing S1P1 or S1P3 for use in ligand binding studies. Cells were suspended in 50 mM TRIS, pH 7.4, 2 mM EDTA, 250 mM Sucrose (buffer A) and 1× Complete protease inhibitor cocktail (Roche), and disrupted at 4° C. by N2 decompression using a cell disruption bomb (Parr Instrument). Following centrifugation at 1000 RPM for 10 min at 4° C., the supernatant was diluted (2×) in buffer A and centrifuged again at 19000 RPM for 75 min at 4° C. The pellet was then suspended in 10 mM HEPES, pH 7.4, 1 mM EDTA, 250 mM Sucrose (Buffer B), and 1× Complete EDTA-free protease inhibitor cocktail and homogenized using a potter. Membranes were flash frozen in liquid N2 and stored at −80° C.
(§2) [33P]sphingosine 1-phosphate (3000 Ci/mmol; American Radiolabeled Chemicals, Inc.) was added to test compounds in 20% DMSO by competition. Membranes and WGA SPA beads (GE Healthcare) were added to give a final volume of 100 μl in 96-well plates or 50 μl in 384-well plates with assay concentrations of 30 pM or 15 pM [33P]sphingosine 1-phosphate (respectively for S1P1 or S1P3), 50 mM HEPES, pH 7.5, 5 mM MgCl2, 100 mM NaCl, 0.4% fatty acid-free BSA, 1-5 μg/well of proteins in 96-well plates vs 0.6-1 μg/well of proteins in 384-well plates and 100 μg/well of WGA SPA beads in 96-well plates vs 75 μg/well of WGA SPA beads in 384-well plates. Binding was performed for 60 min at RT on a shaker and bound radioactivity was measured on a PerkinElmer 1450 MicroBeta counter. Triplicate samples were averaged and normalized as percentage of inhibition relative to total binding (only DMSO in well) and non specific binding (1000-fold excess of unlabeled S1P). Binding data were analyzed using the GraphPad Prism program or Genedata software.
(§3) The “potency” or the “activity” of the compounds is determined by the Ki values as evaluated in one of the above described binding assay, 96 or 384 well plates.

S1P1 [1] = molecular target: T1, S1P1 (Homo sapiens, UniProt P21453); assay: Receptor binding assay, [33P]sphingosine 1-phosphate competition, membranes of CHO cells expressing S1P1
Experimental: as §1, §2, §3
Target sequence in this assay (P21453 whole entry, species assumed): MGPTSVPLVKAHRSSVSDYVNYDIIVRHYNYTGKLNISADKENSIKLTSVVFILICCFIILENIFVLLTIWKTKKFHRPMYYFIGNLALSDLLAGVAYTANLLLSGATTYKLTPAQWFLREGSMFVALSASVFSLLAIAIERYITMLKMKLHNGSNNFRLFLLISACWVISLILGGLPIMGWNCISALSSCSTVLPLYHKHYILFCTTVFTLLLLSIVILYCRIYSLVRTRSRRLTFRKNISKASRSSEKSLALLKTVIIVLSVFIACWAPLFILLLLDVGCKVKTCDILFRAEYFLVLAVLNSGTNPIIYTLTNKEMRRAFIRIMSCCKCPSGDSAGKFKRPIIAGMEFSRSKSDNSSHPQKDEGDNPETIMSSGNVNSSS

S1P1 [2] = molecular target: T1, S1P1; assay: S1P1 internalization assay in S1P1-U2OS cells (cell imaging); format: cell-based; set-up: host or cells: U2OS (human bone osteosarcoma epithelial cells); conditions: U2OS cells expressing S1P1-EGFP, 384-well format
Experimental: Cellular Functional Assays: Internalization of Sphinqosine-1-phosphate Receptor 1 (S1P1) in a Human Cell Line (U2OS) in a 384-Well Format Using a Cell Imaging Analysis.
The S1P1 internalization assay was performed in 384 well plates (Corning 384 black with clear bottom 3712) using S1P1-U2OS cells from BioImage (C039A), a human epithelial cell line (Human Bone Osteosarcoma Epithelial Cells). These cells expressed the human S1P1 Receptor fused to the green fluorescent protein (EGFP). A standard CMV promoter (cytomegalovirus promoter) controls the expression of S1P1-EGFP and continuous expression was maintained by addition of geneticin to the culture medium.
S1P1 Receptor desensitization induced the internalization of the membrane-localized S1P-EGFP fusion protein to endosomes, which can be monitored by cell imaging analysis.
The cells are plated in low serum medium (Dulbecco's Modified Eagle Medium (DMEM) with Glutamax-1 and high glucose, 1% Penicillin/Streptomycin, 1% Fetal Calf Serum (FCS), 0.5 mg/ml Geneticin) overnight.
The next day, S1P1-U2OS cells are incubated in 20 μl serum free medium (DMEM with Glutamax-1 and high glucose, 0.1% of fatty-acid free Bovin Serum Albumin (BSA), 10 mM, N′-2-Hydroxyethylpiperazine-N′-2 ethanesulphonic acid (HEPES) 1M) for 2 hours at 37° C./5% CO2. The cells are then treated with 4 μl compounds/agonists (6×/3% DMSO) for a total volume of 24 μl, and plates are incubated for 1 hour at 37° C./5% CO2.
S1P1-U2OS cells are fixed with 25 μl Paraformaldehyde 8% and stained with Hoechst 33345 dye (1:1000) for 20 minutes.
They were then washed 3 times with Phosphate Buffered Saline (PBS) and plates are sealed. The internalization of the receptor S1P1-EGFP is measured on Cellomics by calculating the “spot count per object” (“object” corresponds to nuclear and “spot” corresponds to S1P1-EGFP receptor). Internalization data were observed thanks to vHCS View and analyzed using Genedata® software.
Target sequence in this assay (P21453 whole entry): as the sequence (P21453 whole entry, species assumed) above

[3] = 96 well plate, read-out: S1P3 Binding Ki [M] (96 well plate)
[4] = 384 well plate, read-out: S1P3 Binding Ki [M] (384 well plate)
[5] = 96 well plate, read-out: S1P1 Binding Ki [M] (96 well plate)
[6] = 384 well plate, read-out: S1P1 Binding Ki [M] (384 well plate)

Chain of S1P3 (Q99500 whole entry, species assumed): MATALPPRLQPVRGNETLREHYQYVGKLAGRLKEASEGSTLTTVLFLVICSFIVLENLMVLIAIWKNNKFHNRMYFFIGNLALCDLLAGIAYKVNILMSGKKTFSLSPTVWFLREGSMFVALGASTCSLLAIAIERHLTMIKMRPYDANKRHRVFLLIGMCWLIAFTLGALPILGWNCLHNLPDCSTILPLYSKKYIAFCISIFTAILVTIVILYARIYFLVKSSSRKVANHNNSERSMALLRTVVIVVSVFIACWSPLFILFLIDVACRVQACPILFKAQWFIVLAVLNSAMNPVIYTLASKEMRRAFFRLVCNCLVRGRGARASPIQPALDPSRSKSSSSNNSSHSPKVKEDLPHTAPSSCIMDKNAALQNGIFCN

Row | SMILES | Ki (S1P3; [3]) | Ki (S1P3; [4]) | Ki (S1P1 [1]; [5]) | Ki (S1P1 [1]; [6]) | EC50 (S1P1 [2])
1 | COCc1cc(-c2nc(-c3ccc([C@@H](C)N[C@H](C)C(=O)O)cc3)no2)ccc1-c1ccccc1C [Example 4, N-[(1R)-1-(4-{5-[2-(methoxymethyl)-2′-methylbiphenyl-4-yl]-1,2,4-oxadiazol-3-yl}phenyl)ethyl]-D-alanine, hydrochloride salt] | 2.2e-06 M | 8.63e-07 M | 1.45e-10 M | 9.18e-10 M | 2 nM
2 | COCc1cc(-c2nc(-c3ccc([C@@H](C)NCC(=O)O)cc3)no2)ccc1-c1ccccc1C [Example 9, N-[(1R)-1-(4-{5-[2-(methoxymethyl)-2′-methylbiphenyl-4-yl]-1,2,4-oxadiazol-3-yl}phenyl)ethyl]glycine, hydrochloride salt] | 7.7e-07 M | 4.94e-07 M | 1.75e-10 M | 1.11e-09 M | 4.34 nM
3 | COCc1cc(-c2nc(-c3ccc([C@H](C)N[C@H](C)C(=O)O)cc3)no2)ccc1-c1ccccc1C [Example 3, N-[(1S)-1-(4-{5-[2-(methoxymethyl)-2′-methylbiphenyl-4-yl]-1,2,4-oxadiazol-3-yl}phenyl)ethyl]-D-alanine, hydrochloride salt] |  | 2.59e-06 M | 3.4e-10 M | 2e-09 M | 8.19 nM
4 | Cc1cc(-c2nc(-c3ccc([C@@H](C)N[C@H](C)C(=O)O)cc3)no2)ccc1-c1ccccc1C(F)F [Example 2, N-[(1R)-1-(4-{5-[2′-(difluoromethyl)-2-methylbiphenyl-4-yl]-1,2,4-oxadiazol-3-yl}phenyl)ethyl]-D-alanine, hydrochloride salt] |  | > 2e-05 M | 2.8e-10 M | 1.42e-09 M | 10.3 nM
5 | Cc1ccccc1-c1ccc(-c2nc(-c3ccc(CN(C)[C@@H](CO)C(=O)O)c(F)c3)no2)cc1C(F)(F)F [Example 45, N-(2-fluoro-4-{5-[2′-methyl-2-(trifluoromethyl)biphenyl-4-yl]-1,2,4-oxadiazol-3-yl}benzyl)-N-methylserine, hydrochloride salt] |  | 4.36e-07 M |  | 2.68e-09 M | 30.8 nM
6 | COCc1cc(-c2nc(-c3ccc(CN(C)C4(C(=O)O)CCCC4)cc3)no2)ccc1-c1ccccc1C [Example 53, 1-((4-(5-(2-(methoxymethyl)-2′-methylbiphenyl-4-yl)-1,2,4-oxadiazol-3-yl)benzyl)(methyl)amino)cyclopentanecarboxylic acid] |  | 3.64e-06 M |  | 3.97e-09 M | 42.2 nM
7 | Cc1ccccc1-c1ccc(-c2nc(-c3cc(F)cc(CNC(C)(C)C(=O)O)c3)no2)cc1C(F)(F)F [Example 46, N-(3-fluoro-5-{5-[2′-methyl-2-(trifluoromethyl)biphenyl-4-yl]-1,2,4-oxadiazol-3-yl}benzyl)-2-methylalanine, hydrochloride salt] |  | 9.55e-08 M |  | 7.94e-10 M | 9.34 nM
8 | Cc1ccccc1-c1ccc(-c2nc(-c3ccc(CN(C)C4(C(=O)O)CCCC4)cc3)no2)cc1C(F)(F)F [Example 73] |  | 5.42e-06 M |  | 2.27e-09 M | 29.8 nM
9 | Cc1ccccc1-c1ccc(-c2nc(-c3cccc(CN[C@H](C)C(=O)O)c3)no2)cc1C(F)(F)F [Example 82] |  | 1.17e-07 M |  | 1.01e-09 M | 25.1 nM
10 | COCc1cc(-c2nc(-c3ccc([C@H](C)NCC(=O)O)cc3)no2)ccc1-c1ccccc1C [Example 5, N-[(1S)-1-(4-{5-[2-(methoxymethyl)-2′-methylbiphenyl-4-yl]-1,2,4-oxadiazol-3-yl}phenyl)ethyl]glycine, hydrochloride salt] |  | 1.23e-06 M |  | 1.27e-09 M | 4.33 nM
11 | Cc1ccccc1-c1ccc(-c2nc(-c3cccc(CN(C)[C@@H](C)C(=O)O)c3)no2)cc1C(F)(F)F [Example 81] |  | 1.72e-07 M |  | 1.72e-09 M | 49.5 nM
12 | CCC(NCc1ccc(-c2noc(-c3ccc(-c4ccccc4C)c(C(F)(F)F)c3)n2)cc1F)C(=O)O (stereo not drawn) [Example 41, 2-[(2-fluoro-4-{5-[2′-methyl-2-(trifluoromethyl)biphenyl-4-yl]-1,2,4-oxadiazol-3-yl}benzyl)amino]butanoic acid, hydrochloride salt] |  | 8.72e-06 M |  | 4.88e-09 M | 12.8 nM
13 | Cc1ccccc1-c1ccc(-c2nc(-c3cccc(C(C)NCC(=O)O)c3)no2)cc1C(F)(F)F (stereo not drawn) [Example 42, N-[1-(3-{5-[2′-methyl-2-(trifluoromethyl)biphenyl-4-yl]-1,2,4-oxadiazol-3-yl}phenyl)ethyl]glycine, hydrochloride salt] |  | 1.06e-07 M |  | 1.02e-09 M | 7.17 nM
14 | CCN(Cc1ccc(-c2noc(-c3ccc(-c4ccccc4C)c(C(F)(F)F)c3)n2)cc1)[C@@H](C)C(=O)O [Example 89, (2S)-2-(ethyl(4-(5-(2′-methyl-2-(trifluoromethyl)biphenyl-4-yl)-1,2,4-oxadiazol-3-yl)benzyl)amino)propanoic acid] |  | 2.03e-06 M |  | 2.56e-09 M | 32.2 nM
15 | Cc1ccccc1-c1ccc(-c2nc(-c3ccc([C@@H](C)NCC(=O)O)cc3)no2)cc1C(F)(F)F [Example 22, N-[(1R)-1-(4-{5-[2′-methyl-2-(trifluoromethyl)biphenyl-4-yl]-1,2,4-oxadiazol-3-yl}phenyl)ethyl]glycine, hydrochloride salt] | 5.98e-07 M | 4.7e-07 M | 4.14e-10 M | 1.72e-09 M | 6.51 nM
16 | Cc1cc(-c2nc(-c3ccc([C@@H](C)NCC(=O)O)cc3)no2)ccc1-c1ccccc1C(F)F [Example 7, N-[(1R)-1-(4-{5-[2′-(difluoromethyl)-2-methylbiphenyl-4-yl]-1,2,4-oxadiazol-3-yl}phenyl)ethyl]glycine, hydrochloride salt] | > 2e-05 M | 5.24e-06 M | 3.7e-10 M | 1.64e-09 M | 17.9 nM
17 | Cc1ccccc1-c1ccc(-c2nc(-c3ccc([C@H](C)N[C@@H](C)C(=O)O)cc3)no2)cc1C(F)(F)F [Example 18, N-[(1S)-1-(4-{5-[2′-methyl-2-(trifluoromethyl)biphenyl-4-yl]-1,2,4-oxadiazol-3-yl}phenyl)ethyl]-L-alanine, hydrochloride salt] |  | 3.65e-06 M |  | 1.03e-08 M | 116 nM
18 | Cc1ccccc1-c1ccc(-c2nc(-c3ccc([C@@H](C)N[C@H](C)C(=O)O)cc3)no2)cc1C(F)(F)F [Example 20, N-[(1R)-1-(4-{5-[2′-methyl-2-(trifluoromethyl)biphenyl-4-yl]-1,2,4-oxadiazol-3-yl}phenyl)ethyl]-D-alanine, hydrochloride salt] | 6.83e-06 M | 2.27e-06 M | 8.67e-10 M | 1.63e-09 M | 7.57 nM
19 | Cc1ccccc1-c1ccc(-c2nc(-c3ccc(C(C)N(C)CC(=O)O)cc3)no2)cc1C(F)(F)F (stereo not drawn) [Example 40, N-methyl-N-[1-(4-{5-[2′-methyl-2-(trifluoromethyl)biphenyl-4-yl]-1,2,4-oxadiazol-3-yl}phenyl)ethyl]glycine, hydrochloride salt] |  | 5.32e-07 M |  | 2.17e-09 M | 17.8 nM
